{
  "source": "paper PMC8766551",
  "about": "“Amino acid residue at position 188 determines the UV-sensitive bistable property of vertebrate non-visual opsin Opn5” (Communications Biology, 2022)",
  "format_in_all_cases": "binding",
  "key": {"Xenopus tropicalis Opn5m [1]": {"biological_target": "T1, Xenopus tropicalis Opn5m (Xenopus tropicalis, UniProt A0A8J0QRX8, W163F)", "T1 construct": "gene opn5; 21 residues truncated from the C-terminus; expressed in HEK293S cells; purified in DDM on Rho1D4-agarose", "T1 sequence (A0A8J0QRX8 1-322 W163F)": "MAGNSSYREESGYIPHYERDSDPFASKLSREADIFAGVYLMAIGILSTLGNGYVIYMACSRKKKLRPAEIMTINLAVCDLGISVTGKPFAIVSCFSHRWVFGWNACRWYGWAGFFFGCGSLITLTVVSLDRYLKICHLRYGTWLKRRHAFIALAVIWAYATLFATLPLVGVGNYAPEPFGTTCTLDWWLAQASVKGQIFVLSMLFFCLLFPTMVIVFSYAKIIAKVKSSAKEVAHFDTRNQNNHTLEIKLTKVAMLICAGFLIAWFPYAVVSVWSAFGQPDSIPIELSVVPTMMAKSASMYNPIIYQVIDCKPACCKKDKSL", "test": "reconstitution, purification, HPLC of retinal oximes", "settings": "covalent; 40 uM 11-cis retinal added to collected cell membranes, 4 °C, 24 h, dark; pH 6.5; isomer composition, no affinity"}, "Xenopus tropicalis Opn5m [2]": {"biological_target": "T2, Xenopus tropicalis Opn5m (Xenopus tropicalis, UniProt A0A8J0QRX8)", "T2 construct": "gene opn5; 21 residues truncated from the C-terminus; expressed in HEK293S cells; purified in DDM on Rho1D4-agarose", "T2 sequence (A0A8J0QRX8 1-322)": "T1 sequence (A0A8J0QRX8 1-322 W163F) with F163W", "test": "reconstitution, purification, HPLC of retinal oximes", "settings": "covalent; 40 uM 11-cis retinal added to collected cell membranes, 4 °C, 24 h, dark; pH 6.5; isomer composition, no affinity"}, "Xenopus tropicalis Opn5m [3]": {"biological_target": "T3, Xenopus tropicalis Opn5m (Xenopus tropicalis, UniProt A0A8J0QRX8, L208F)", "T3 construct": "gene opn5; 21 residues truncated from the C-terminus; expressed in HEK293S cells; purified in DDM on Rho1D4-agarose", "T3 sequence (A0A8J0QRX8 1-322 L208F)": "T1 sequence (A0A8J0QRX8 1-322 W163F) with F163W, L208F", "test": "reconstitution, purification, HPLC of retinal oximes", "settings": "covalent; 40 uM 11-cis retinal added to collected cell membranes, 4 °C, 24 h, dark; pH 6.5; isomer composition, no affinity"}, "Xenopus tropicalis Opn5m [4]": {"biological_target": "T2, Xenopus tropicalis Opn5m", "test": "absorption spectrum of purified reconstituted pigment, difference spectrum", "settings": "covalent; all-trans retinal added, dark versus yellow light (>500 nm), 0 °C, pH 6.5; spectral value, no affinity"}, "Xenopus tropicalis Opn5m [5]": {"biological_target": "T4, Xenopus tropicalis Opn5m (Xenopus tropicalis, UniProt A0A8J0QRX8, T184N)", "T4 construct": "gene opn5; 21 residues truncated from the C-terminus; expressed in HEK293S cells; purified in DDM on Rho1D4-agarose", "T4 sequence (A0A8J0QRX8 1-322 T184N)": "T1 sequence (A0A8J0QRX8 1-322 W163F) with F163W, T184N", "test": "absorption spectrum of purified reconstituted pigment, difference spectrum", "settings": "covalent; all-trans retinal added, dark versus yellow light (>500 nm), 0 °C, pH 6.5; spectral value, no affinity"}, "Xenopus tropicalis Opn5m [6]": {"biological_target": "T5, Xenopus tropicalis Opn5m (Xenopus tropicalis, UniProt A0A8J0QRX8, T184S)", "T5 construct": "gene opn5; 21 residues truncated from the C-terminus; expressed in HEK293S cells; purified in DDM on Rho1D4-agarose", "T5 sequence (A0A8J0QRX8 1-322 T184S)": "T1 sequence (A0A8J0QRX8 1-322 W163F) with F163W, T184S", "test": "absorption spectrum of purified reconstituted pigment, difference spectrum", "settings": "covalent; all-trans retinal added, dark versus yellow light (>500 nm), 0 °C, pH 6.5; spectral value, no affinity"}, "Xenopus tropicalis Opn5m [7]": {"biological_target": "T3, Xenopus tropicalis Opn5m", "test": "absorption spectrum of purified reconstituted pigment, difference spectrum", "settings": "covalent; 40 uM all-trans retinal added to collected cell membranes, dark versus yellow light (>500 nm), 0 °C, pH 6.5; spectral value, no affinity"}, "Xenopus tropicalis Opn5m [8]": {"biological_target": "T6, Xenopus tropicalis Opn5m (Xenopus tropicalis, UniProt A0A8J0QRX8, T184G)", "T6 construct": "gene opn5; 21 residues truncated from the C-terminus; expressed in HEK293S cells; purified in DDM on Rho1D4-agarose", "T6 sequence (A0A8J0QRX8 1-322 T184G)": "T1 sequence (A0A8J0QRX8 1-322 W163F) with F163W, T184G", "test": "absorption spectrum of purified reconstituted pigment, difference spectrum", "settings": "covalent; all-trans retinal added, dark versus yellow light (>500 nm), 0 °C, pH 6.5; spectral value, no affinity"}, "Xenopus tropicalis Opn5m [9]": {"biological_target": "T7, Xenopus tropicalis Opn5m (Xenopus tropicalis, UniProt A0A8J0QRX8, T184C)", "T7 construct": "gene opn5; 21 residues truncated from the C-terminus; expressed in HEK293S cells; purified in DDM on Rho1D4-agarose", "T7 sequence (A0A8J0QRX8 1-322 T184C)": "T1 sequence (A0A8J0QRX8 1-322 W163F) with F163W, T184C", "test": "absorption spectrum of purified reconstituted pigment, difference spectrum", "settings": "covalent; all-trans retinal added, dark versus yellow light (>500 nm), 0 °C, pH 6.5; spectral value, no affinity"}, "Xenopus tropicalis Opn5m [10]": {"biological_target": "T8, Xenopus tropicalis Opn5m (Xenopus tropicalis, UniProt A0A8J0QRX8, T184Q)", "T8 construct": "gene opn5; 21 residues truncated from the C-terminus; expressed in HEK293S cells; purified in DDM on Rho1D4-agarose", "T8 sequence (A0A8J0QRX8 1-322 T184Q)": "T1 sequence (A0A8J0QRX8 1-322 W163F) with F163W, T184Q", "test": "absorption spectrum of purified reconstituted pigment, difference spectrum", "settings": "covalent; all-trans retinal added, dark versus yellow light (>500 nm), 0 °C, pH 6.5; spectral value, no affinity"}, "Xenopus tropicalis Opn5m [11]": {"biological_target": "T9, Xenopus tropicalis Opn5m (Xenopus tropicalis, UniProt A0A8J0QRX8, T184A)", "T9 construct": "gene opn5; 21 residues truncated from the C-terminus; expressed in HEK293S cells; purified in DDM on Rho1D4-agarose", "T9 sequence (A0A8J0QRX8 1-322 T184A)": "T1 sequence (A0A8J0QRX8 1-322 W163F) with F163W, T184A", "test": "absorption spectrum of purified reconstituted pigment, difference spectrum", "settings": "covalent; all-trans retinal added, dark versus yellow light (>500 nm), 0 °C, pH 6.5; spectral value, no affinity"}, "Xenopus tropicalis Opn5m [12]": {"biological_target": "T10, Xenopus tropicalis Opn5m (Xenopus tropicalis, UniProt A0A8J0QRX8, T184M)", "T10 construct": "gene opn5; 21 residues truncated from the C-terminus; expressed in HEK293S cells; purified in DDM on Rho1D4-agarose", "T10 sequence (A0A8J0QRX8 1-322 T184M)": "T1 sequence (A0A8J0QRX8 1-322 W163F) with F163W, T184M", "test": "absorption spectrum of purified reconstituted pigment, difference spectrum", "settings": "covalent; all-trans retinal added, dark versus yellow light (>500 nm), 0 °C, pH 6.5; spectral value, no affinity"}},
  "note": "Numbering of substitutions follows the chain as printed.",
  "data": [
    {"smiles": "CC1=C(/C=C/C(C)=C/C=C\\C(C)=C\\C=O)C(C)(C)CCC1", "note": "[11-cis retinal]", "values": [
      {"measurement": "% of bound retinal as 11-cis isomer", "setting": "Xenopus tropicalis Opn5m [1]", "value": 84, "unit": "%"},
      {"measurement": "% of bound retinal as 11-cis isomer", "setting": "Xenopus tropicalis Opn5m [2]", "value": 91, "unit": "%"},
      {"measurement": "% of bound retinal as 11-cis isomer", "setting": "Xenopus tropicalis Opn5m [3]", "value": 88, "unit": "%"}
    ]},
    {"smiles": "CC1=C(/C=C/C(C)=C/C=C/C(C)=C/C=O)C(C)(C)CCC1", "note": "[all-trans retinal]", "values": [
      {"measurement": "λmax", "setting": "Xenopus tropicalis Opn5m [4]", "value": 474, "unit": "nm"},
      {"measurement": "λmax", "setting": "Xenopus tropicalis Opn5m [5]", "value": 460, "unit": "nm"},
      {"measurement": "λmax", "setting": "Xenopus tropicalis Opn5m [6]", "value": 478, "unit": "nm"},
      {"measurement": "λmax", "setting": "Xenopus tropicalis Opn5m [7]", "value": 475, "unit": "nm"},
      {"measurement": "λmax", "setting": "Xenopus tropicalis Opn5m [8]", "value": 477, "unit": "nm"},
      {"measurement": "λmax", "setting": "Xenopus tropicalis Opn5m [9]", "value": 470, "unit": "nm"},
      {"measurement": "λmax", "setting": "Xenopus tropicalis Opn5m [10]", "value": 483, "unit": "nm"},
      {"measurement": "λmax", "setting": "Xenopus tropicalis Opn5m [11]", "value": 481, "unit": "nm"},
      {"measurement": "λmax", "setting": "Xenopus tropicalis Opn5m [12]", "value": 467, "unit": "nm"}
    ]}
  ]
}
